Bounds are passed on as bounds.

Chain of FAK protein (Q05397 whole entry): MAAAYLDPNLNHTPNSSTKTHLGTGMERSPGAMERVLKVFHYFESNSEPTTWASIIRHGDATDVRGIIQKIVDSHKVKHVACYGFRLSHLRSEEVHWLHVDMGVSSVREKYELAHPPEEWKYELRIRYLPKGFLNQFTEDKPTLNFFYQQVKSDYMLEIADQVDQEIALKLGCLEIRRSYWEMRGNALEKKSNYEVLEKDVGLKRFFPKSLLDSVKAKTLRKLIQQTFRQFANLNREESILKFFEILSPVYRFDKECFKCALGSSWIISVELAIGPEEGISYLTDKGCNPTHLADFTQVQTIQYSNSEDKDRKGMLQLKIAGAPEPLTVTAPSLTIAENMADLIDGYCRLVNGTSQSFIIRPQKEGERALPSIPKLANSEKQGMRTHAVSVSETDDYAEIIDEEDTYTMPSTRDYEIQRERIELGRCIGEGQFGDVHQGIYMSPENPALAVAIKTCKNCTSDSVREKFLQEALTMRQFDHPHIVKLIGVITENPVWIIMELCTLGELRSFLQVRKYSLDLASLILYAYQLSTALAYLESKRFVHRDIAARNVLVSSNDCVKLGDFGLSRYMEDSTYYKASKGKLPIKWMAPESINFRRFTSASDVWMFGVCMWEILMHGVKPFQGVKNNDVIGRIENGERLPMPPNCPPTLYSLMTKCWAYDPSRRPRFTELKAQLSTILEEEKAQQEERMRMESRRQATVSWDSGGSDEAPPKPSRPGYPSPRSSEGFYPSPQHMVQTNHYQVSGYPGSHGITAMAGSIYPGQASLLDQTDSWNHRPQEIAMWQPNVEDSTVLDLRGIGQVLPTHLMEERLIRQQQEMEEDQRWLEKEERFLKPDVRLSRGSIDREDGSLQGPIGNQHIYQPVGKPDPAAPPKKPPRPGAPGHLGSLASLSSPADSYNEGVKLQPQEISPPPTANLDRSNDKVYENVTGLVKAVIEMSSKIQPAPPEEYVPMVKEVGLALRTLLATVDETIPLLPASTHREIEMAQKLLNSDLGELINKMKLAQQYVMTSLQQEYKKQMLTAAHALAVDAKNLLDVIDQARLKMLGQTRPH

The first assay concerns the target FAK protein (Homo sapiens, UniProt Q05397). As to the kind of experiment: Degradation inducing activity of FAK protein in PA-1 cells, Western blotting (Simple Western JESS). It counts as cell-based. Also noted: endogenous in cells; host or cells: PA-1 (ATCC CRL-1572). Particulars: at 10 µM, 24 hours. As to the method:
In vitro degradation inducing activity of FAK protein of compounds of Examples was evaluated by Western Blotting (WB).
By a test compound, 10 mM DMSO solution was prepared, which was used as a 10 µM test compound solution. Further, the solution was diluted 10-fold with DMSO to prepare a 1 mM solution, which was used as a 1 µM test compound solution.
PA-1 cells (ATCC: CRL-1572, Lot: 70055709) were cultured in Eagle's Minimum Essential Medium supplemented with 10% FBS and 1% Penicillin/Streptomycin. The PA-1 cells seeded in a 24 well plate at 200,000 cells/well/1 mL were cultured for 24 hours, and then 1 µL of DMSO or a test compound solution was added thereto and treatment was performed for 24 hours. Cells were harvested and lysed for 20 minutes on ice using RIPA lysis buffer (Sigma, Cat#R0278) supplemented with protease inhibitor cocktail (Sigma, Cat#P8340; Roche, Cat#P11873580001), and phosphatase inhibitor cocktail (Sigma, Cat#P5726, P0044). The lysate was sonicated (15 seconds, amplitude 30%, 1 cycle) and then centrifuged at 12500 rpm for 15 minutes at 4°C. The protein concentration was determined by BCA assay kit (Thermo Fisher Scientific, Cat#23225).
The western blotting was performed using Simple Western JESS (protein simple). A cell lysis sample (protein amount; about 2 µg) was loaded on a plate of Simple Western JESS, and the expression level of […] was detected using a 12-230 kDa Wes Separation Module (Protein simple, Cat#SM-WO04), an Anti-Rabbit Detection Module for Wes (Protein simple, Cat#DM-001), and a Total Protein Detection Module for Wes (Protein simple, Cat#DM-TP01). As the primary antibody, a material obtained by diluting FAK Rabbit mAb (Cell Signaling Technology, Cat#3285) at 1:100 was used, and as the secondary antibody, a material obtained by diluting HRP-labeled anti-rabbit IgG antibody (Cell Signaling Technology, Cat#7074S) at 1:250 was used. The expression level of the target protein was standardized using the total protein amount loaded as a reference. The standardized expression level data of the control (DMSO) was taken as 100%, and the degradation rate (%) was calculated from the average standardized expression level data of the test compounds (compounds of Examples 109 to 128). All analysis steps, such as data detection and analysis, are fully automated.
For orientation: Immunoblotting shows a protein as a band on a membrane.
Regarding `COC[C@H]1CN[C@H](C)CN1CC(=O)N1CC(C)(C)c2ncc(Cc3cccc(OCCN4CCN(CC(=O)Nc5ccc(Nc6ncc(C(F)(F)F)c(NCc7cccc(S(C)(=O)=O)c7)n6)cc5)CC4)c3)cc21` [Example 124, 2-(4-(2-(3-((1-(2-((2R,5R)-2-(Methoxymethyl)-5-methylpiperazin-1-yl)acetyl)-3,3-dimethyl-2,3-dihydro-1H-pyrrolo[3,2-b]pyridin-6-yl)methyl)phenoxy)ethyl)piperazin-1-yl)-N-(4-((4-((3-(methylsulfonyl)benzyl)amino)-5-(trifluoromethyl)pyrimidin-2-yl)amino)phenyl)acetamide], the “FAK protein degradation rate” value is reported as not below 75%.

Take `C[C@@H]1CN(CC(=O)N2CC(C)(C)c3ncc(Cc4ccc(F)cc4)cc32)[C@@H](CN(C)CCOCCOCCOCCOCC(=O)Nc2ccc(Nc3ncc(C(F)(F)F)c(NCc4cccc(S(C)(=O)=O)c4)n3)cc2)CN1` [Example 112, 1-((2R,5R)-1-(2-(6-(4-Fluorobenzyl)-3,3-dimethyl-2,3-dihydro-1H-pyrrolo[3,2-b]pyridin-1-yl)-2-oxoethyl)-5-methylpiperazin-2-yl)-2-methyl-N-(4-((4-((3-(methylsulfonyl)benzyl)amino)-5-(trifluoromethyl)pyrimidin-2-yl)amino)phenyl)-5,8,11,14-tetraoxa-2-azahexadecan-16-amide]: the “FAK protein degradation rate” value is reported as not below 75%.

`C[C@@H]1CN(CC(=O)N2CC(C)(C)c3ncc(Cc4ccc(F)cc4)cc32)[C@@H](CN(C)CCOCCOCC(=O)Nc2ccc(Nc3ncc(C(F)(F)F)c(NCc4cccc(S(C)(=O)=O)c4)n3)cc2)CN1` [Example 110, 2-(2-(2-((((2R,5R)-1-(2-(6-(4-fluorobenzyl)-3,3-dimethyl-2,3-dihydro-1H-pyrrolo[3,2-b]pyridin-1-yl)-2-oxoethyl)-5-methylpiperazin-2-yl)methyl) (methyl)amino)ethoxy)ethoxy)-N-(4-((4-((3-(methylsulfonyl)benzyl)amino)-5-(trifluoromethyl)pyrimidin-2-yl)amino)phenyl)acetamide]: the “FAK protein degradation rate” value is given as not below 75%.

Regarding “2-(4-((6-(4-Fluorobenzyl)-1-(2-((2R,5R)-2-(methoxymethyl)-5-methylpiperazin-1-yl)acetyl)-3,3-dimethyl-2,3-dihydro-1H-pyrrolo[3,2-b]pyridin-5-yl)methyl)piperazin-1-yl)-N-(4-((4-((3-(methylsulfonyl)benzyl)amino)-5-(trifluoromethyl)pyrimidin-2-yl)amino)phenyl)acetamide [Example 114]”, the “FAK protein degradation rate” value is on record as not below 75%.

For `COC[C@H]1CN[C@H](C)CN1CC(=O)N1CC(C)(C)c2ncc(Cc3ccccc3OCCN3CCN(CC(=O)Nc4ccc(Nc5ncc(C(F)(F)F)c(NCc6cccc(S(C)(=O)=O)c6)n5)cc4)CC3)cc21` [Example 119, 2-(4-(2-(2-((1-(2-((2R,5R)-2-(Methoxymethyl)-5-methylpiperazin-1-yl)acetyl)-3,3-dimethyl-2,3-dihydro-1H-pyrrolo[3,2-b]pyridin-6-yl)methyl)phenoxy)ethyl)piperazin-1-yl)-N-(4-((4-((3-(methylsulfonyl)benzyl)amino)-5-(trifluoromethyl)pyrimidin-2-yl)amino)phenyl)acetamide], the “FAK protein degradation rate” value is listed as not below 75%.

In another assay the target is T1, human ALK kinase (Homo sapiens, UniProt Q9UM73).
T1 construct: GST (N); purchased Carna Biosciences, Inc; host or cells: baculovirus expression system
T1 sequence (Q9UM73 1058-1620): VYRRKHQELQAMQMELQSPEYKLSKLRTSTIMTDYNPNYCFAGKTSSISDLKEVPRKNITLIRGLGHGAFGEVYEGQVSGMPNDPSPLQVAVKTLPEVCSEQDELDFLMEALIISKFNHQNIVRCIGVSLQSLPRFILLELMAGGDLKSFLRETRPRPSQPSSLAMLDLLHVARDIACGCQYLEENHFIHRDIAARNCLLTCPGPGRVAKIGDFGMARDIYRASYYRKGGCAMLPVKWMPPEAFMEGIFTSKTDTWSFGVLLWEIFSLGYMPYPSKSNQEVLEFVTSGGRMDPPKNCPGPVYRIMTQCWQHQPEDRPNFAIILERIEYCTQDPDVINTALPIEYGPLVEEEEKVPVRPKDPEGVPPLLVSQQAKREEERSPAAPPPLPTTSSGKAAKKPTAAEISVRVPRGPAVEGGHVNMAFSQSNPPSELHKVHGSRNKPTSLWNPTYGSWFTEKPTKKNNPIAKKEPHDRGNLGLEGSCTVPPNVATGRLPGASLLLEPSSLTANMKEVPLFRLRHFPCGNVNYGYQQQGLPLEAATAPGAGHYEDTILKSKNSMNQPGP
As to the kind of experiment: ALK kinase inhibitory activity, mobility shift assay (MSA, Carna Biosciences). The class given is biochemical. Particulars: inhibition rate at 10 nM. On the procedure:
The ALK kinase inhibitory activity was measured using a mobility shift assay (MSA) provided by Carna Biosciences, Inc.
The test compound was dissolved in DMSO to prepare a 1 µM solution. The solution was further diluted 25 times with an assay buffer (20 mmol/L HEPES, 0.01%Triton (registered trademark) X-100, 1 mmol/L DTT, pH 7.5) to obtain a test compound solution.
The human ALK kinase was expressed by fusing the cytoplasmic domain (1058 to 1620 amino acids of Accession No. BAG 10812.1) with GST at the N-terminus using the baculovirus expression system. The GST-ALK was purified by glutathione sepharose chromatography. A 4-fold concentration substrate (Srctide, 1000 nmol/L)/ATP (50 µmol/L)/metal solution (Mg, 5 mmol/L) was prepared with kit buffer (20 mmol/L HEPES, 0.01% Triton (registered trademark) X-100, 5 mmol/L DTT, pH 7.5). A 2-fold concentration kinase solution was prepared with assay buffer.
In the same manner as described in Test Example 1, tests and evaluation of inhibitory activity and data analysis were performed.
Usually inhibition stands for the change of the read-out against control, counted positive when it falls. For the molecule `COC[C@H]1CN[C@H](C)CN1CC(=O)N1CC(C)(C)c2ncc(Cc3ccccc3OCCOCCOCCOCCOCCNC(=O)CN3CCC(c4cc(OC(C)C)c(Nc5ncc(Cl)c(Nc6ccccc6S(=O)(=O)C(C)C)n5)cc4C)CC3)cc21` [Example 100, 2-(4-(4-((5-Chloro-4-((2-(isopropylsulfonyl)phenyl)amino)pyrimidin-2-yl)amino)-5-isopropoxy-2-methylphenyl)piperidin-1-yl)-N-(14-(2-((1-(2-((2R,5R)-2-(methoxymethyl)-5-methylpiperazin-1-yl)acetyl)-3,3-dimethyl-2,3-dihydro-1H-pyrrolo[3,2-b]pyridin-6-yl)methyl)phenoxy)-3,6,9,12-tetraoxatetradecyl)acetamide], the inhibition at 0.01 µM was not below 75%.

Take `COC[C@H]1CN[C@H](C)CN1CC(=O)N1CC(C)(C)c2nc(CN(C)CCOCCOCCNC(=O)CN3CCC(c4cc(OC(C)C)c(Nc5ncc(Cl)c(Nc6ccccc6S(=O)(=O)C(C)C)n5)cc4C)CC3)c(Cc3ccc(F)cc3)cc21` [Example 92, 2-(4-(4-((5-Chloro-4-((2-(isopropylsulfonyl)phenyl)amino)pyrimidin-2-yl)amino)-5-isopropoxy-2-methylphenyl)piperidin-1-yl)-N-(2-(2-(2-(((6-(4-fluorobenzyl)-1-(2-((2R,5R)-2-(methoxymethyl)-5-methylpiperazin-1-yl)acetyl)-3,3-dimethyl-2,3-dihydro-1H-pyrrolo[3,2-b]pyridin-5-yl)methyl) (methyl)amino)ethoxy)ethoxy)ethyl) acetamide]: the inhibition at 0.01 µM was not below 75%.

Take `Cc1cc(Nc2ncc(Cl)c(Nc3ccccc3S(=O)(=O)C(C)C)n2)c(OC(C)C)cc1C1CCN(CC(=O)NCCOCCOCCOCCOCCOCCN(C)C[C@H]2CN[C@H](C)CN2CC(=O)N2CC(C)(C)c3ncc(Cc4ccc(F)cc4)cc32)CC1` [Example 89, 2-(4-(4-((5-Chloro-4-((2-(isopropylsulfonyl)phenyl)amino)pyrimidin-2-yl)amino)-5-isopropoxy-2-methylphenyl)piperidin-1-yl)-N-(1-((2R,5R)-1-(2-(6-(4-fluorobenzyl)-3,3-dimethyl-2,3-dihydro-1H-pyrrolo[3,2-b]pyridin-1-yl)-2-oxoethyl)-5-methylpiperazin-2-yl)-2-methyl-5,8,11,14,17-pentaoxa-2-azanonadecan-19-yl)acetamide]: the inhibition at 0.01 µM is 50 to 75%.

With `COC[C@H]1CN[C@H](C)CN1CC(=O)N1CC(C)(C)c2nc(CN(C)CCOCCOCCOCCOCCOCCNC(=O)CN3CCC(c4cc(OC(C)C)c(Nc5ncc(Cl)c(Nc6ccccc6S(=O)(=O)C(C)C)n5)cc4C)CC3)c(Cc3ccc(F)cc3)cc21` [Example 95, 2-(4-(4-((5-Chloro-4-((2-(isopropylsulfonyl)phenyl)amino)pyrimidin-2-yl)amino)-5-isopropoxy-2-methylphenyl)piperidin-1-yl)-N-(1-(6-(4-fluorobenzyl)-1-(2-((2R,5R)-2-(methoxymethyl)-5-methylpiperazin-1-yl)acetyl)-3,3-dimethyl-2,3-dihydro-1H-pyrrolo[3,2-b]pyridin-5-yl)-2-methyl-5,8,11,14,17-pentaoxa-2-azanonadecan-19-yl)acetamide], the inhibition at 0.01 µM is not below 75%.

For the molecule `COC[C@H]1CN[C@H](C)CN1CC(=O)N1CC(C)(C)c2ncc(Cc3cccc(OCCOCCOCCOCCOCCOCCNC(=O)CN4CCC(c5cc(OC(C)C)c(Nc6ncc(Cl)c(Nc7ccccc7S(=O)(=O)C(C)C)n6)cc5C)CC4)c3)cc21` [Example 107, 2-(4-(4-((5-Chloro-4-((2-(isopropylsulfonyl)phenyl)amino)pyrimidin-2-yl)amino)-5-isopropoxy-2-methylphenyl)piperidin-1-yl)-N-(17-(3-((1-(2-((2R,5R)-2-(methoxymethyl)-5-methylpiperazin-1-yl)acetyl)-3,3-dimethyl-2,3-dihydro-1H-pyrrolo[3,2-b]pyridin-6-yl)methyl)phenoxy)-3,6,9,12,15-pentaoxaheptadecyl)acetamide], the inhibition at 0.01 µM is not below 75%.

(Values after patent EP4578856A1, “HETEROCYCLIC COMPOUND” (Ubience Inc., priority 2022, dated 2024).)
